From patent US20090158447A1, “TLR ligand and IL-1 Response-Injured Animal Model” (priority 2004, published 2009)

Legend:
Assay type in all cases: cell-based, mouse
RAW 264.7 cells = test: Luciferase reporter assay of IL-6 and ELAM1 promoters; details: RAW 264.7 cells transfected with luciferase reporter plasmids, FIG. 4a
Text: It is a figure showing the result of an in vitro analysis of IκB-ζ on the IL-6 promoter. a. RAW 264.7 cells were transiently transfected with luciferase reporter constructs of either mouse IL-6 promoter or ELAM1 promoter together with either a control or the IκB-ζ expression plasmid. Luciferase activities were expressed as fold-increase over the background shown by lysates prepared from untransfected cells. Data are representative of three separate experiments. In all three experiments, cells were stimulated with the indicated concentrations of LPS. b. A certain amount of IκB-ζ expression vector was transiently introduced into untreated RAW 264.7 cells with the indicated amount of IL-6 reporter plasmid. Data are representative of three independent experiments. c. […] Precipitated DNA for the IL-6 κB site (left), 3′ region of IL-6 gene (center), or ELAM1 promoter (right) was measured by PCR (ChIP). […]
Reporter plasmids were transiently co-transfected into RAW 264.7 and P19 cells with either control or the IκB-ζ expression vectors by using SUPERFECT transfection reagent (QIAGEN). Luciferase activities of total cell lysates were measured using dual-luciferase reporter assay system (Promega, Maiden, Wis.) according to the method described previously (28, 29) (Nat Immunol. 3, 392-398 (2002); Nat Immunol. 2, 835-841 (2001)).

[1] = test system: peritoneal macrophages or lung-derived normal cells; test: Northern blot analysis of IκB-ζ, Bcl-3 and IκB-α expression on TLR/IL-1R stimulation; details: stimulation for 2 hours, FIG. 1a
Protocol: Peritoneal macrophages and lung primary cells were stimulated with 100 ng ml^−1 BLP, 10 μg ml^−1 PGN, 30 ng ml^−1 MALP-2, 100 nM R-848, 3 μM CpG DNA, 10 ng ml^−1 IL-1β, 10 μg ml^−1 LPS, 100 ng ml^−1 flagellin, and 10 ng ml^−1 TNF-α for 2 hours. Total RNA (10 μg) was extracted and subjected to Northern blot analysis for investigating the expression of IκB-ζ, Bcl-3, IκB-α, and β-actin. b. MEFs from wild-type and MyD88-deficient mice were stimulated with 10 ng ml^−1 IL-1β and 10 μg ml^−1 LPS for the indicated periods. Total RNA (10 μg) was extracted and subjected to Northern blot analysis for investigating the expression of IκB-ζ, Cox-2, IP-10, and β-actin.
Whether IκB-ζ would be induced in response to other TLR ligands was examined based on the fact that stimulation with IL-1 or LPS induces IκB-ζ in macrophage cell lines and fibroblasts, and that IL-1R and the receptor for LPS, TLR4, share the intracellular signaling pathways. […] On the other hand, other IκB family members, IκB-α and Bcl-3, were induced in response to TNF-αas well as a TLR ligand and IL-1. Taken together, unlike IκB-α and Bcl-3, the IκB-ζ induction is specifically detected on the TLR/IL-1R stimulation.

peritoneal macrophages = test: Time-course Northern blot analysis of IκB-ζ induction following LPS stimulation; details: wild-type peritoneal macrophages, 10 ng ml^−1 LPS, FIG. 3h
Protocol: It is a figure showing immune responses in IκB-ζ-deficient cells, and kinetics of IκB-ζ induction. a, b, c, d. Peritoneal macrophages from wild-type and IκB-ζ-deficient mice were cultured with the indicated concentrations of PGN, R-848, CpG DNA in the coexistence of 10 ng ml^−1 LPS, 100 ng ml^−1 BLP, and 30 ng ml^−1 MALP-2, and in the presence of 30 ng ml^−1 IFN-γ for 24 h. Concentrations of IL-6, TNF-α, and NO in the culture supernatants were measured. The indicated values are means±SD of triplicates. “N.D.” means not detected. e. MEFs from wild-type and IκB-ζ-deficient mice were stimulated with 10 ng ml^−1 IL-1 and 10 ng ml^−1 TNF-α. Supernatents were collected for IL-6 analysis by ELISA 24 h later. Indicated values are means±SD of triplicates. “N.D.” means not detected. f. Peritoneal macrophages were stimulated with 10 ng ml^−1 LPS for the indicated periods. Total RNA (5 μg) was extracted and subjected to Northern blot analysis for investigating the expression of IL-6, TNF-α, and β-actin. g. […] Concentrations of IL-6 in the culture supernatants, with or without 10 ng ml^−1 IL-β, were measured by ELISA. […] Two-independent experiments with independently derived wild-type cells were quantitated by Phospholmager and mRNA amount was graphed for the indicated genes in arbitrary units (left for IκB-ζ and IL-6, right for TNF-α) relative to β-actin. […]

lipopolysaccharide [LPS]
activation of both IL-6 and ELAM1 promoters (RAW 264.7 cells): dose-dependent manner | IκB-ζ mRNA induction [1]: strongly induced | time after stimulation at which IκB-ζ induction reached its maximum level (peritoneal macrophages): 120 min | time after stimulation at which IκB-ζ induction was observed (peritoneal macrophages): 30 min
